{"source": "paper PMC8584447", "about": "“Adhesive Antimicrobial Peptides Containing 3,4-Dihydroxy-L-Phenylalanine Residues for Direct One-Step Surface Coating” (International Journal of Molecular Sciences, 2021)", "key": {"[1]": {"tested_on": "E. coli", "experiment": "Antibacterial activity of peptide-coated surfaces (ISO 22196, modified), E. coli", "type": "cell-based, Escherichia coli", "experimental": "(§1) To coat the designed peptides on a surface, 200 μL of freshly prepared 200 μM peptide solution (10 mM Tris-HCl, pH 8.5) was added into a 24-well PS plate and incubated for 10 min at 37 °C. After coating, the plates were rinsed with deionized water and air-dried. The PS, Ti, and PDMS pieces (1 cm × 1 cm) were coated in the same manner. For the PD-mediated AMP coating, a layer of PD was first coated on a 24-well PS plate by dip coating, as previously described, with minor modifications. Each PS well was treated with 2 mg/mL dopamine solution (10 mM Tris-HCl, pH 8.5) and incubated for approximately 1 h at 37 °C. The PD-coated wells were washed twice with deionized water to remove excess dopamine. To attach the NKC peptide to a PD-coated 24-well PS plate, NKC peptide solution (200 μM) was dispensed into each well, and the plate was incubated at 37 °C for 24 h. The wells with the immobilized peptide were then washed twice with deionized water.\n(§2) The bactericidal activities of the AMP-coated surfaces were evaluated following the International Organization for Standardization 22196 standard with slight modifications. Overnight bacterial suspensions were subcultured in fresh LB until the mid-log phase and diluted to 10^6 cells/mL with 500-fold diluted LB. The AMP-coated and uncoated substrates (1 cm × 1 cm) were placed in 24-well plates, and 10 μL of the bacterial suspension was distributed over the substrate surface. The substrates were covered with a piece of polyethylene film (1 cm × 1 cm) and incubated for 2 h (37 °C, relative humidity: >90%). Subsequently, SCDLP broth (990 μL) was added, and viable cells were retrieved and serially diluted. Aliquots (100 μL) of the bacterial suspension were withdrawn and plated for colony counting."}, "[2]": {"tested_on": "E. coli ATCC 27325", "type": "cell-based, Escherichia coli", "conditions": "ATCC 27325, 18 h", "experimental": "The MICs of the designed peptides were measured against the gram-negative bacterium E. coli ATCC 27325 according to the general guidelines of the Clinical and Laboratory Standards Institute, with some modifications based on a study of cationic AMPs. Briefly, a single bacterial colony was cultured in Mueller−Hinton broth (MHB; Sigma–Aldrich) until the mid-log phase (optical density of 0.4–0.6 at 600 nm). The bacterial suspension was diluted with fresh MHB to a concentration of 10^6 colony-forming units (CFU)/mL. Next, two-fold serial dilutions (128 to 1 μM) of the peptides were prepared in MHB and mixed (1:1) with the diluted bacterial culture, resulting in a final peptide concentration ranging from 64 to 0.5 μM and final bacteria concentration of 5 × 10^5 cells/mL. The mixtures were placed into 96-well polypropylene microtiter plates (Corning), with sterile MHB used as a negative control and MHB inoculated with bacterial cells used as growth control. The plates were incubated for 18 h at 37 °C with shaking at 200 rpm. The MIC values were determined as the lowest concentrations at which no bacterial growth was recorded at 600 nm using a microplate reader (Infinite 200 Pro; Tecan, Männedorf, Switzerland)."}, "[3]": {"tested_on": "P. aeruginosa", "experiment": "Bacterial adhesion / biofilm assay (live/dead staining, confocal microscopy), P. aeruginosa", "type": "cell-based, Pseudomonas aeruginosa", "conditions": "10^7 cells/mL, 24 h, 37 °C, SYTO9/PI staining", "experimental": "(§3) The viability of bacterial cells adhered to the substrate surface was evaluated using the Live/Dead BacLight Bacterial Viability Kit (Thermo Fisher Scientific) according to the manufacturer’s instructions. Briefly, 200 μL of bacterial suspensions adjusted to 10^7 cells/mL were incubated on uncoated or peptide-coated chambered cover glasses (Thermo Fisher Scientific) at 37 °C for 24 h. After 24 h, planktonic cells were removed, and the surfaces were washed with 0.85% (w/v) NaCl buffer. Cells attached to the surfaces were stained for 15 min in the dark with BacLight stock solution containing two fluorescent nucleic acid stains, SYTO9 and propidium iodide (PI). After staining, the surfaces were washed with 0.85% NaCl solution, and the stained cells were photographed using confocal laser-scanning microscopy (LSM 5 LIVE DuoScan, Carl Zeiss, Jena, Germany) using a 63× objective. The excitation wavelengths were 488 and 561 nm for SYTO9 and PI, respectively."}, "[4]": {"tested_on": "E. coli", "experiment": "Stability assessment of surface-coated peptide (antimicrobial activity after storage)", "type": "cell-based, Escherichia coli", "conditions": "for antimicrobial activity after storage: coated PS stored at 25 °C, (Nc−N)/Nc×100, mean ± SD", "experimental": "as §2\nTo evaluate the stability of the surface-coated peptides, antimicrobial activity was determined as described above after incubating the AMP-coated PS plates for 1, 7, 14, 21, 28, 56, and 84 days at 4 °C and 25 °C and with the formula below: Antimicrobial activity (%)=Nc−N/Nc×100 where Nc and N represent the number of colonies after incubation on the control and AMP-coated substrates, respectively."}, "[5]": {"tested_on": "S. aureus", "experiment": "Antibacterial activity of peptide-coated surfaces (ISO 22196, modified), S. aureus", "type": "cell-based, Staphylococcus aureus", "conditions": "NKC-DOPA5-coated PS, Ti and PDMS (1 cm × 1 cm), 10 μL of 10^6 cells/mL, 37 °C", "experimental": "as §1\n(§4) The bactericidal activities of the AMP-coated surfaces were evaluated following the International Organization for Standardization 22196 standard with slight modifications. Overnight bacterial suspensions were subcultured in fresh LB until the mid-log phase and diluted to 10^6 cells/mL with 500-fold diluted LB. […]"}, "[6]": {"tested_on": "S. aureus", "experiment": "Bacterial adhesion / biofilm assay (live/dead staining, confocal microscopy), S. aureus", "type": "cell-based, Staphylococcus aureus", "conditions": "10^7 cells/mL, 24 h, 37 °C, SYTO9/PI staining", "experimental": "as §3"}, "[7]": {"tested_on": "E. coli", "experiment": "Bacterial adhesion / biofilm assay (live/dead staining, confocal microscopy), E. coli", "type": "cell-based, Escherichia coli", "conditions": "10^7 cells/mL, 24 h, 37 °C, SYTO9/PI staining", "experimental": "as §3"}, "[8]": {"tested_on": "P. aeruginosa", "experiment": "Rat subcutaneous implant infection model", "type": "in vivo, Sprague–Dawley rats", "experimental": "In vivo antibacterial activity was evaluated using specific pathogen-free Sprague–Dawley male rats (7 weeks old, weighing 200−220 g). All animal experiments were approved by the Animal Ethics Committee of KNOTUS, Incheon, Korea (approval no. 18-KE-383) and performed following the guidelines for the care and use of laboratory animals of KNOTUS. All rats were housed in individually ventilated cages and acclimated for 7 days before surgery. For implantation, the rats were anesthetized by intramuscular injection of Zoletil® (30 mg/kg; Virbac, Carros, France), and the dorsum was shaved and disinfected with 70% isopropyl alcohol. Approximately 1 cm wide incisions were made parallel to the spine and extended to the subdermal fascia. For the control group, uncoated Ti screws or PDMS slides were implanted into the left flank, whereas AMP-coated implants were inserted into the right flank. The wounds were sutured, and the implant site was marked on the skin. Setting the skin mark as a guide, 100 μL of a p. aeruginosa inoculum containing 2.5 × 10^8 cells/mL was injected subcutaneously. The rats were euthanized by CO2 asphyxia at 5 days after the bacterial challenge. The implants were removed using sterile tools and placed in sterile tubes containing 1 mL of PBS. For the detachment of bacteria from the implant materials, the tubes were sonicated for 15 min, and 10-fold serial dilutions of the bacterial solution were plated on LB agar for CFU determination. The tissues surrounding the implants were carefully removed, separately immersed in 1 mL of PBS, and homogenized. Bacteria in the tissues were quantified by serial dilution. For histological examination, the tissues surrounding the implants were formaldehyde-fixed, paraffin-embedded, and then stained with hematoxylin and eosin [26]."}, "[9]": {"tested_on": "HaCaT cells", "quoted_text": "To evaluate the toxicity of the peptides coated on the substrates towards human skin, the mitochondrial dehydrogenase activity of HaCaT keratinocytes was measured in a modified 3-(4,5-dimethyl-2-thiazolyl)-2,5-diphenyl-2H-tetrazolium bromide (MTT) reduction assay. HaCaT cells were routinely cultured in Dulbecco’s modified Eagle’s medium (DMEM; Lonza, Basel, Switzerland) with 10% fetal bovine serum (Lonza) and 1% penicillin–streptomycin solution (Thermo Fisher Scientific) in humidified 5% CO2 at 37 °C. The cultured cells were washed twice with phosphate-buffered saline (PBS; pH 7.4) and detached by trypsinization. The harvested HaCaT cells were diluted to 5 × 10^4 cells/mL, seeded into 12-well culture plates, and incubated in a humidified incubator with 5% CO2. After incubation, the medium was changed to serum-free DMEM, and uncoated or AMP-coated pieces (PS/Ti/PDMS; 1 cm × 1 cm) were placed upside down on the HaCaT cells. After 24 h, the pieces were removed, and MTT solution in 1 mL of DMEM was added to each well. […] The plate was incubated overnight, and the absorbance was measured at 570 nm using a microplate reader (Tecan Infinite 200 Pro). […] Cell viability was expressed as the percentage of surviving cells on the coated substrates relative to those on the uncoated substrates."}, "[10]": {"tested_on": "P. aeruginosa", "experiment": "Antibacterial activity of peptide-coated surfaces (ISO 22196, modified), P. aeruginosa", "type": "cell-based, Pseudomonas aeruginosa", "conditions": "NKC-DOPA5-coated PS, Ti and PDMS (1 cm × 1 cm), 10 μL of 10^6 cells/mL, 37 °C", "experimental": "as §1, §4"}, "[11]": {"conditions": "peptide-coated 24-well PS, 10^6 cells/mL E. coli, 2 h, colony counting"}, "[12]": {"conditions": "coated PDMS implants, 5 days post-inoculation"}}, "note": "Ends that are not written are not given here."}
{"substance": "APKAMKLLKKLLKLQKKGI-NH2 (C-terminus assumed) [NKC, reference compound]", "values": [{"measurement": "reduction of the cell count", "setting": "[1]; NKC attached via polydopamine (PD) to PS plate, E. coli, 2 h", "value": "approximately 4.2 log"}, {"measurement": "MIC", "setting": "[2]", "value": 1, "unit": "µM"}]}
{"substance": "APKAMKLLKKLLKLQKKGIGGGGSGGGGSY [NKC-DOPA1, NKC with glycine–serine linker and 1 DOPA moiety at the C-terminus]", "values": [{"measurement": "bacterial growth on coated surface (in words)", "setting": "[1]; [11]", "value": "hardly inhibited bacterial growth"}]}
{"substance": "APKAMKLLKKLLKLQKKGIGGGGSGGGGSYYY [NKC-DOPA3, NKC with glycine–serine linker and 3 DOPA moieties at the C-terminus]", "values": [{"measurement": "log reduction in the cell count", "setting": "[1]; [11]", "value": 5.7, "unit": "log"}]}
{"substance": "APKAMKLLKKLLKLQKKGIGGGGSGGGGSYYYYY [NKC-DOPA5, NKC with glycine–serine linker and 5 DOPA moieties at the C-terminus]", "values": [{"measurement": "biofilm formation on coated surface", "setting": "[3]", "value": "remarkably inhibited biofilm formation"}, {"measurement": "number of viable bacterial cells after 2 h", "setting": "[1]; NKC-DOPA5-coated PS, Ti and PDMS (1 cm × 1 cm), 10 μL of 10^6 cells/mL, 37 °C", "value": "zero"}, {"measurement": "bacterial growth on coated surface (in words)", "setting": "[1]; [11]", "value": "No bacterial growth was observed"}, {"measurement": "change in antimicrobial activity during storage", "setting": "[4]; coated PS plate stored at 4 °C for 84 days", "value": "no change"}, {"measurement": "antimicrobial activity after storage", "setting": "[4]; 7 days", "value": "99.75 ± 0.16", "unit": "%"}, {"measurement": "antimicrobial activity after storage", "setting": "[4]; 84 days", "value": "99.17 ± 3.25", "unit": "%"}, {"measurement": "number of viable bacterial cells after 2 h", "setting": "[5]", "value": "zero"}, {"measurement": "biofilm formation on coated surface", "setting": "[6]", "value": "remarkably inhibited biofilm formation"}, {"measurement": "biofilm formation on coated surface", "setting": "[7]", "value": "remarkably inhibited biofilm formation"}, {"measurement": "decrease in number of bacteria recovered from surrounding tissues vs pristine", "setting": "[8]; PDMS implants, 5 days post-inoculation", "value": "approximately 3.8 log CFU/g"}, {"measurement": "difference in number of bacteria in surrounding tissues, pristine vs coated", "setting": "[8]; Ti implants, 5 days post-inoculation", "value": 3, "unit": "log CFU/g"}, {"measurement": "implants from which microorganisms were absent", "setting": "[8]; [12]", "value": "three of the five implants"}, {"measurement": "median number of bacteria recovered from surrounding tissues", "setting": "[8]; [12]", "value": 0.9, "unit": "log CFU/g"}, {"measurement": "average bacterial count per implant", "setting": "[8]; coated PDMS implants, five implants, 5 days post-inoculation", "value": 0.92, "unit": "log CFU/mL per implant"}, {"measurement": "microbial loads of the two colonised implants", "setting": "[8]; coated PDMS, the other two of five implants, 5 days post-inoculation", "value": "2.0−2.6 log CFU/mL"}, {"measurement": "number of bacteria from tissues surrounding the implants", "setting": "[8]; coated Ti implants, 5 days post-inoculation", "value": 2.7, "unit": "log CFU/g"}, {"measurement": "microorganisms on implants", "setting": "[8]; coated Ti screw, five implants, 5 days post-inoculation of P. aeruginosa", "value": "no microorganisms were observed"}, {"measurement": "inflammation of tissues around the implants", "setting": "[8]; coated Ti screws and PDMS, 5 days post-inoculation, gross observation", "value": "without apparent inflammation"}, {"measurement": "cell viability", "setting": "[9]", "value": "> 90", "unit": "%"}, {"measurement": "number of viable bacterial cells after 2 h", "setting": "[10]", "value": "zero"}]}
{"substance": "APKAMKLLKKLLKLQKKGIGGGGSGGGGSYYYYYYY [NKC-DOPA7, NKC with glycine–serine linker and 7 DOPA moieties at the C-terminus]", "values": [{"measurement": "bacterial growth on coated surface (in words)", "setting": "[1]; [11]", "value": "No bacterial growth was observed"}]}
